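In this assay, cells in 96-well plates receive the compound at five concentrations for 48 hours. Endpoints are linearly interpolated between the surrounding concentrations. GI50 is the concentration that inhibits growth by half.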 The source made the active and inactive calls. Cut-off read from the data, not from the text of the source: active = GI50 up to about 1.1 µM and inactive = higher.
Columns and labels:
Assay in all cases: inhibition of tumour cell growth, NCI panel, 48 h
DLD-1 = tested on: DLD-1
LOX IMVI = tested on: LOX IMVI
NCI-H522 = tested on: NCI-H522
A498 = tested on: A498
MOLT-4 = tested on: MOLT-4
RPMI-8226 = tested on: RPMI-8226
SW-620 = tested on: SW-620
OVCAR-3 = tested on: OVCAR-3
M19-MEL = tested on: M19-MEL
UO-31 = tested on: UO-31
SNB-75 = tested on: SNB-75
UACC-257 = tested on: UACC-257
A549 = tested on: A549
SR = tested on: SR
OVCAR-8 = tested on: OVCAR-8
NCI-H460 = tested on: NCI-H460
KM-20L2 = tested on: KM-20L2
SF-295 = tested on: SF-295
HCT-15 = tested on: HCT-15
NCI-H23 = tested on: NCI-H23
K562 = tested on: K562
HT-29 = tested on: HT-29
OVCAR-4 = tested on: OVCAR-4
NCI-H226 = tested on: NCI-H226
DMS-273 = tested on: DMS-273
ACHN = tested on: ACHN
EKVX = tested on: EKVX
HCC 2998 = tested on: HCC 2998
OVCAR-5 = tested on: OVCAR-5
IGROV-1 = tested on: IGROV-1
HOP-92 = tested on: HOP-92
TK-10 = tested on: TK-10
SK-MEL-5 = tested on: SK-MEL-5
HOP-62 = tested on: HOP-62
786-0 = tested on: 786-0
CCRF-CEM = tested on: CCRF-CEM
CAKI-1 = tested on: CAKI-1
COLO 205 = tested on: COLO 205
HOP-18 = tested on: HOP-18
SK-OV-3 = tested on: SK-OV-3
RXF 393 = tested on: RXF 393
HL-60 = tested on: HL-60
KM12 = tested on: KM12
LXFL 529 = tested on: LXFL 529
XF498 = tested on: XF498
UACC-62 = tested on: UACC-62
SK-MEL-28 = tested on: SK-MEL-28
SF-268 = tested on: SF-268
SN12C = tested on: SN12C
M14 = tested on: M14
SNB-78 = tested on: SNB-78
SK-MEL-2 = tested on: SK-MEL-2
U-251 = tested on: U-251
HCT-116 = tested on: HCT-116
Malme-3M = tested on: Malme-3M
SNB-19 = tested on: SNB-19
SF-539 = tested on: SF-539
DMS-114 = tested on: DMS-114

Measured: GI50

COc1cc2cc3c4c(cc(OC)c(OC)c4c2cc1OC)CCN3C(=O)OCCN1CCNCC1
inactive: DLD-1 15.2 µM | LOX IMVI 13.7 µM | NCI-H522 16.6 µM | A498 14.6 µM | MOLT-4 16.1 µM | RPMI-8226 14.1 µM | SW-620 14.9 µM | OVCAR-3 15.3 µM | M19-MEL 6.95 µM | UO-31 14.9 µM | SNB-75 11.9 µM | UACC-257 14.9 µM | A549 18.5 µM | SR 11.2 µM | OVCAR-8 15.9 µM | NCI-H460 13.5 µM | KM-20L2 11.8 µM | SF-295 15 µM | NCI-H23 17.4 µM | K562 12.6 µM | HT-29 12.6 µM | OVCAR-4 17.5 µM | NCI-H226 14.4 µM | DMS-273 13.5 µM | ACHN 15.1 µM | EKVX 15.1 µM | HCC 2998 16.1 µM | OVCAR-5 18 µM | IGROV-1 17.3 µM | HOP-92 12.9 µM | TK-10 15 µM | SK-MEL-5 14.3 µM | HOP-62 17.1 µM | 786-0 11.6 µM | CCRF-CEM 18.4 µM | CAKI-1 15 µM | COLO 205 8.22 µM | HOP-18 17 µM | SK-OV-3 17.9 µM | RXF 393 14.4 µM | HL-60 13.2 µM | KM12 15.1 µM | LXFL 529 15.1 µM | XF498 15.3 µM | UACC-62 14.9 µM | SK-MEL-28 18.5 µM | SF-268 11.1 µM | SN12C 15.9 µM | M14 14.7 µM | SNB-78 16 µM | SK-MEL-2 19.3 µM | U-251 15.3 µM | HCT-116 11.9 µM | Malme-3M 17.3 µM | SNB-19 21.9 µM | SF-539 15.1 µM
15.5 µM: HCT-15

Cc1ccc(C2=C(c3ccccc3)C(O)(c3ccc(C)cc3)C(c3ccccc3)=C2c2ccc(C)cc2)cc1
inactive: DLD-1 > 100 µM | LOX IMVI > 100 µM | A498 > 100 µM | MOLT-4 > 100 µM | RPMI-8226 54.6 µM | SW-620 > 100 µM | OVCAR-3 69 µM | DMS-114 > 100 µM | M19-MEL > 100 µM | UACC-257 > 100 µM | A549 > 100 µM | OVCAR-8 > 100 µM | NCI-H460 > 100 µM | KM-20L2 > 100 µM | SF-295 > 100 µM | NCI-H23 1.91 µM | K562 > 100 µM | OVCAR-4 > 100 µM | DMS-273 > 100 µM | ACHN > 100 µM | EKVX 72.1 µM | HCC 2998 > 100 µM | OVCAR-5 > 100 µM | IGROV-1 > 100 µM | HOP-92 > 100 µM | TK-10 > 100 µM | SK-MEL-5 > 100 µM | HOP-62 > 100 µM | 786-0 > 100 µM | CCRF-CEM > 100 µM | CAKI-1 99.5 µM | COLO 205 > 100 µM | SK-OV-3 > 100 µM | HL-60 14.4 µM | KM12 > 100 µM | LXFL 529 60.1 µM | XF498 > 100 µM | UACC-62 > 100 µM | SK-MEL-28 > 100 µM | SF-268 > 100 µM | SN12C > 100 µM | M14 82 µM | SNB-78 > 100 µM | SK-MEL-2 > 100 µM | U-251 > 100 µM | HCT-116 > 100 µM | Malme-3M > 100 µM | SNB-19 > 100 µM | SF-539 > 100 µM
> 100 µM: HCT-15

C[N+](C)(C)CC1CCC(C[N+](C)(C)C)C1=NO (configuration not stated)
inactive: DLD-1 > 100 µM | LOX IMVI > 100 µM | NCI-H522 > 100 µM | A498 > 100 µM | MOLT-4 > 100 µM | RPMI-8226 > 100 µM | SW-620 > 100 µM | OVCAR-3 > 100 µM | M19-MEL > 100 µM | UO-31 > 100 µM | SNB-75 > 100 µM | UACC-257 > 100 µM | A549 > 100 µM | SR > 100 µM | OVCAR-8 > 100 µM | KM-20L2 > 100 µM | SF-295 > 100 µM | NCI-H23 > 100 µM | K562 > 100 µM | HT-29 > 100 µM | OVCAR-4 > 100 µM | NCI-H226 > 100 µM | ACHN > 100 µM | EKVX > 100 µM | IGROV-1 > 100 µM | SK-MEL-5 > 100 µM | HOP-62 > 100 µM | 786-0 > 100 µM | CCRF-CEM > 100 µM | COLO 205 > 100 µM | HOP-18 > 100 µM | SK-OV-3 > 100 µM | RXF 393 > 100 µM | HL-60 > 100 µM | KM12 > 100 µM | LXFL 529 > 100 µM | XF498 > 100 µM | UACC-62 > 100 µM | SK-MEL-28 > 100 µM | SF-268 > 100 µM | SN12C > 100 µM | M14 > 100 µM | SNB-78 > 100 µM | SK-MEL-2 > 100 µM | U-251 > 100 µM | HCT-116 > 100 µM | Malme-3M > 100 µM | SNB-19 > 100 µM | SF-539 > 100 µM
> 100 µM: HCT-15

— ChEMBL document CHEMBL1201862, “PubChem BioAssay data set” (2004)
